Reference: patent US7897588B2, “Agents and methods for enhancing bone formation” (The Regents of the University of California, priority 2003, dated 2011)

Experiments:
Assay type in all cases: cell-based, mouse
adipocyte P2 gene (aP2) = test: Northern blot for adipocyte P2 gene in troglitazone-treated M2 cells; conditions: 10 μM Tro, 10 μM 20S, 10 days
Procedure: (§1) RNA isolation and Northern blot analysis—Following treatment of cells under appropriate experimental conditions, total RNA was isolated using the RNA isolation kit from Stratagene (La Jolla, Calif., U.S.A.). Total RNA ([…]) was run on a 1% agarose/formaldehyde gel and transferred to Duralon-UV membranes (Strategene, Calif., U.S.A.) and cross-linked with UV light. The membranes were hybridized overnight at 60 degree C. with ^32P-labeled mouse osteocalcin cDNA probe, mouse lipoprotein lipase (LPL), mouse adipocyte protein 2 (aP2) PCR-generated probes, human 28S or 18S rRNA probes obtained from Geneka Biotechnology (Montreal, Quebec, Canada) and Maxim Biotech (San Francisco, Calif., U.S.A.), respectively. […] The extent of gene induction was determined by densitometry.
(§2) Test 2: (A) M2 cells at confluence were treated in RPMI containing 10% FBS with control vehicle or 10 μM troglitazone (Tro) in the absence or presence of 10 μM 20S or 22S oxysterols. After 10 days, adipocytes were visualized by oil Red O staining and quantified by light microscopy, shown in (B). […] After 10 days, total RNA was isolated and analyzed for lipoprotein lipase (LPL), adipocyte P2 gene (aP2) or 18S rRNA expression by Northern blotting as described (Ref). […]

ERK1 and ERK2 = test: Western blot for phosphorylated ERK in M2 cells; conditions: 5 μM 20S, 1, 4 or 8 hours
Procedure: Western blot analysis—After treatments, cells were lysed in lysis buffer, protein concentrations determined using the Bio-Rad protein assay (Hercules, Calif. U.S.A.), and SDS-PAGE performed as previously described. Probing for native and phosphorylated ERKs was performed as previously reported.
(A) M2 cells at confluence were pretreated for four hours with RPMI containing 1% FBS, followed by treatment with control vehicle or 5 μM 20S oxysterol for 1, 4, or 8 hours. Next total cell extracts were prepared and analyzed for levels of native or phosphorylated ERK (pERK) using specific antibodies as previously described. Data from a representative of four experiments are shown, each treatment shown in duplicate samples. (B) M2 cells at confluence were pretreated for 2 hours with control vehicle (C) or 20 μM PD98059 (PD) in osteogenic medium as previously described. Next, a combination of 22R and 20S oxysterols (RS, 5 μM each) were added to appropriate wells as indicated. After 10 days of incubation, matrix mineralization was quantified by the ^45Ca incorporation assay as previously described. Data from a representative of three experiments are reported as the mean±SD of quadruplicate determinations, normalized to protein concentration (p<0.01 for RS vs. RS+PD). […] After 10 days, adipocytes were visualized by oil Red O staining and quantified by light microscopy as previously described. […]

lipoprotein lipase (LPL) = test: Northern blot for lipoprotein lipase in troglitazone-treated M2 cells; conditions: 10 μM Tro, 10 μM 20S, 10 days
Procedure: as §1, §2

Structure (SMILES): CC(C)CCC[C@](C)(O)[C@H]1CC[C@H]2[C@@H]3CC=C4C[C@@H](O)CC[C@]4(C)[C@H]3CC[C@@]21C [20S, 20(S)-hydroxycholesterol]
- expression of adipocyte P2 gene (aP2) (adipocyte P2 gene (aP2)): inhibition
- activation of ERK1 and ERK2 (ERK1 and ERK2): sustained activation
- expression of lipoprotein lipase (LPL) (lipoprotein lipase (LPL)): inhibition
